Reference: patent US12303484B2, “Method of treating cancer” (University of Louisiana at Lafayette, priority 2019, dated 2025)
Like-named read-outs stand apart in the source and are kept apart here.

Experiments:
[1] = system: NCI-H23 Lung Cancer cell line; test: MTT cell proliferation / cytotoxicity assay, NCI-H23; assay type: cell-based, human; details: for ED50 (in words): NCI-H23, MTT assay; for EC50: MTT, read-out: Effective Dose 50 (ED50)
Method: (§1) Examples measuring the effectiveness of mer-[RuCl3(DMSO)(dmpyz)2 in treating two lines of cancer cells is presented herein. Lung Cancer Cell lines NCI-H522 and NCI-H23 from ATCC were grown in RPMI (growth medium) supplemented with 10% heat inactivated fetal bovine serum (FBS) along with penicillin and streptomycin. All cells were grown at humidified, carbon dioxide enriched atmosphere (+37° C. with 5% CO2).
(§2) NCI-H522 cells were seeded at 50,000 cells/well and NCI-H23 at 30,000cells/well in a 96-well microtiter plate in RPMI with 10% FBS. Cells were incubated at humidified atmosphere (+37° C. with 5% CO2) for overnight attachment. A mer-[RuCl3(DMSO)(dmpyz)2 drug along with the positive control drug Doxorubicin were used in following concentrations (100 μM, 33 μM, 11 μM, 3.7 μM, 1.2 μM, 0.4 μM per well of cells) and added in triplicates and incubated for 3 time durations (24 hrs,48 hrs,72 hrs) at humidified atmosphere (37° C. with 5% CO2). Thereafter the cells were treated with 10 μl (final concentration 0.5 mg/ml) 3-(4,5-dimethylthiazol-2-yl)- 2,5-diphenyltetrazolium bromide (MTT, see Cell Proliferation Kit I MTT Roche: Cat No: 11465007001). The microplate were incubated for 4 hours in a humidified atmosphere (+37° C., 5% CO2). Four hours later 100 μl of solubilization solution (from Roche MTT kit) was added into each well. The plate were allowed to stand overnight in the incubator in a humidified atmosphere (+37° C., 5% CO2). The complete solubilization of the purple formazan crystals was check for and measure the absorbance of the samples using a microplate (ELISA) reader. The wavelength was measure for absorbance of the formazan product at 562 nm the reference wavelength used was 630 nm. Percentage viable cells were calculated as below. % viable cells=(ab of sample-ab of blank/ab control-ab blank) X100 % cytotoxicity or % inhibition=100−% viable cells
(§3) The Effective Dose 50 (ED50) was extrapolated from the dose-response graph. The drug concentration that reduced the viability of the cells by 50% (ED50) was determined by plotting data points over a concentration range and calculating values using PRISM program.
(§4) The MTT assay is used to measure cellular metabolic activity as an indicator of cell viability, proliferation and cytotoxicity. This colorimetric assay is based on the reduction of a yellow tetrazolium salt (3-(4,5-dimethylthiazol-2-yl)-2,5-diphenyltetrazolium bromide or MTT) to purple formazan crystals by metabolically active cells. Viable cells produce enzymes that convert yellow MTT to insoluble purple formazan. The more viable cells present in a sample, the more intense the purple color. This test is widely used in the in vitro evaluation of cytotoxic potency of drugs. In the present study we applied the MTT assay to evaluate the potency of mer-[RuC3(DMSO)(dmpyz)2 anti-cancer drug in various human lung cancer cell lines.

[2] = system: NCI-H522 Lung Cancer cell line; test: MTT cell proliferation / cytotoxicity assay, NCI-H522; assay type: cell-based, human; details: for ED50 (in words): NCI-H522, MTT assay; for EC50: MTT, read-out: Effective Dose 50 (ED50)
Method: as §1, §2, §3, §4

H522 cell lines (NSCLC) = test: Ruthenium complex screening against cancer subtypes (FIG. 3); assay type: cell-based
Excerpt: Still, preliminary tests show promise that dosage of RuCl3(DMSO)(dmPyz)2 is effective against NSCLC subtypes. FIG. 3 is a table showing the results of Ruthenium complex screening conducted to test the efficacy of the current Ruthenium (III) complexes to various cancer subtypes.

**Q.** How did the “ED50 (in words)” value [1] turn out when `COc1cccc2c1C(=O)c1c(O)c3c(c(O)c1C2=O)C[C@@](O)(C(=O)CO)C[C@@H]3O[C@H]1C[C@H](N)[C@H](O)[C@H](C)O1` [doxorubicin, Doxorubicin, reference compound] was run?
**A.** The value was “comparable to published data”.

**Q.** And the “ED50 (in words)” value [2]?
**A.** The value was “comparable to published data”.

**Q.** Which results are given for mer-[RuCl3(DMSO)(dmpyz)2?
**A.** cytotoxic response ([1]; H23 cell lines, 100 μM concentration): highly toxic; EC50 ([1]; NCI-H23, 24 hrs treatment): 81.1 µM; EC50 ([1]; NCI-H23, 48 hrs treatment): 77.4 µM; EC50 ([1]; NCI-H23, 72 hrs treatment): 59.4 µM; ED50 (in words) [1]: modest micromolar; cell viability ([1]; NCI-H23, drug concentration 100 μM): reduces to zero; cytotoxic response ([2]; H522 cell lines, 33 μM concentration): highly toxic; EC50 ([2]; NCI-H522, 24 hrs treatment): 82.1 µM; EC50 ([2]; NCI-H522, 48 hrs treatment): 11.7 µM; EC50 ([2]; NCI-H522, 72 hrs treatment): 12.5 µM; ED50 (in words) [2]: modest micromolar; cell viability ([2]; NCI-H522, drug concentration 33 μM or more): reduces to zero; IC50 (H522 cell lines (NSCLC); suggested from 97% inhibition at 10 micromole): < 10 µM; inhibition of NSCLC (H522 cell lines (NSCLC); treatment of 10 micromole (M) purified, preliminary tests): 97%
